Reference: PubChem BioAssay (NCI)
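Growth conditions: 96-well plates. Treatment: test compound, 48 hours, 5 concentrations. Analysis: linear interpolation between bracketing concentrations; unreached endpoints set to highest concentration. GI50: concentration for 50% inhibition of growth. TGI: concentration producing complete growth inhibition.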

Key:
Test in all cases: DTP human tumour cell line panel, 48 h
[1] = test system: A498 renal
[2] = test system: DU-145 prostate
[3] = test system: KM12 colon
[4] = test system: LOX IMVI melanoma
[5] = test system: OVCAR-4 ovarian
[6] = test system: OVCAR-8 ovarian
[7] = test system: RPMI-8226 leukemia
[8] = test system: SF-539 CNS
[9] = test system: SK-MEL-28 melanoma
[10] = test system: UACC-257 melanoma

## C1=C\COCc2cc(ccc2OCCN2CCCC2)Nc2nccc(n2)-c2cccc(c2)COC/1
[1]
  GI50: 1.86 µM
  TGI: 5.32 µM
[2]
  GI50: 1.55 µM
  TGI: 5.53 µM
[3]
  GI50: 0.348 µM
  TGI: 3.74 µM
[4]
  GI50: 0.847 µM
  TGI: 2.88 µM
[5]
  GI50: 3.79 µM
  TGI: 6.56 µM
[6]
  GI50: 3.22 µM
  TGI: 7.32 µM
[7]
  GI50: 3.12 µM
  TGI: 6.35 µM
[8]
  GI50: 3.11 µM
  TGI: 5.71 µM
[9]
  GI50: 2.1 µM
  TGI: 5.33 µM
[10]
  GI50: 2.53 µM
  TGI: 5.66 µM

## O=C1c2ccccc2-c2c1c1ccccc1c(=O)n2CCCCl
[1]
  GI50: 7.88 µM
  TGI: 28.5 µM
[2]
  GI50: 6.22 µM
  TGI: > 100 µM
[3]
  GI50: 34 µM
  TGI: > 100 µM
[4]
  GI50: 6.78 µM
  TGI: 35.7 µM
[5]
  GI50: > 100 µM
  TGI: > 100 µM
[6]
  GI50: 9.28 µM
  TGI: 44.8 µM
[7]
  GI50: 61.7 µM
  TGI: > 100 µM
[8]
  GI50: 4.11 µM
  TGI: 21.5 µM
[9]
  GI50: > 100 µM
  TGI: > 100 µM
[10]
  GI50: 12.6 µM
  TGI: 76.5 µM

## O=C1NC(=O)/C(=C\c2ccccc2)C2=C1CCCC2
[1]
  GI50: 12.9 µM
  TGI: 26.1 µM
[2]
  GI50: 10.8 µM
  TGI: 22.9 µM
[3]
  GI50: 9.21 µM
  TGI: 22 µM
[4]
  GI50: 1.85 µM
  TGI: 4.06 µM
[5]
  GI50: 14.8 µM
  TGI: 29.2 µM
[6]
  GI50: 9.92 µM
  TGI: 41.1 µM
[7]
  GI50: 1.91 µM
[8]
  GI50: 11.6 µM
  TGI: 24.1 µM
[9]
  GI50: 4.14 µM
  TGI: 13.9 µM
[10]
  GI50: 8.11 µM
  TGI: 22.5 µM

## OCc1ccn2c1[C@@H](O)CC2
[1]
  TGI: > 100 µM
[2]
  TGI: > 100 µM
[3]
  TGI: > 100 µM
[4]
  TGI: > 100 µM
[5]
  TGI: > 100 µM
[6]
  TGI: > 100 µM
[7]
  TGI: > 100 µM
[8]
  TGI: > 100 µM
[9]
  TGI: > 100 µM
[10]
  TGI: > 100 µM

## COc1cc2c3c(n(CCCOC(=O)C(F)(F)F)c(=O)c2cc1OC)-c1cc2c(cc1C3=O)OCO2
[1]
  GI50: 0.375 µM
  TGI: 20.6 µM
[2]
  TGI: 1.71 µM
[3]
  GI50: 0.0296 µM
  TGI: 14.6 µM
[4]
  GI50: < 0.01 µM
  TGI: 0.0371 µM
[5]
  GI50: 0.208 µM
  TGI: > 100 µM
[6]
  TGI: 0.664 µM
[7]
  GI50: < 0.01 µM
  TGI: 0.0158 µM
[8]
  GI50: < 0.01 µM
  TGI: 0.0699 µM
[9]
  TGI: > 100 µM

## O=C(O)c1ccc(OCc2ccccc2)c(Cl)c1
[1]
  TGI: > 100 µM
[2]
  TGI: > 100 µM
[3]
  TGI: > 100 µM
[4]
  TGI: > 100 µM
[5]
  TGI: > 100 µM
[6]
  TGI: > 100 µM
[7]
  TGI: > 100 µM
[8]
  TGI: > 100 µM
[9]
  TGI: > 100 µM
[10]
  TGI: > 100 µM

## COc1cc(OC)c(/C=C/c2c3ccccc3cc[n+]2C)c(OC)c1
[1]
  GI50: 1 µM
  TGI: 7.26 µM
[2]
  GI50: 2.96 µM
  TGI: 48.8 µM
[3]
  GI50: 0.673 µM
  TGI: 6.85 µM
[4]
  GI50: 2.01 µM
  TGI: 5.9 µM
[5]
  GI50: 1.15 µM
  TGI: > 100 µM
[6]
  GI50: 2.27 µM
  TGI: 12.4 µM
[7]
  GI50: 0.377 µM
  TGI: 6.92 µM
[8]
  GI50: 2.1 µM
  TGI: 9.17 µM
[9]
  GI50: 2.34 µM
  TGI: 13.2 µM
[10]
  GI50: 0.674 µM
  TGI: 6.01 µM

## NC(=O)OCCn1cc(-c2nc(-c3c[nH]c4ncccc34)cs2)c2ccccc21
[1]
  GI50: 0.905 µM
  TGI: 2.87 µM
[2]
  GI50: 3.07 µM
  TGI: 26.1 µM
[3]
  GI50: 1.44 µM
  TGI: 9.45 µM
[4]
  GI50: 1.55 µM
  TGI: 4.11 µM
[5]
  GI50: 1.78 µM
  TGI: 11.9 µM
[7]
  GI50: 2.04 µM
  TGI: 8.03 µM
[8]
  GI50: 1.61 µM
  TGI: 4.5 µM
[9]
  GI50: 2.05 µM
  TGI: 14.8 µM
[10]
  GI50: 2.08 µM
  TGI: 7.88 µM

## COc1ccc(-n2c(C)cc(-c3ccccc3)c2C)cc1
[1]
  GI50: 0.637 µM
  TGI: 9 µM
[2]
  GI50: 4.66 µM
  TGI: 22.3 µM
[3]
  GI50: 2.85 µM
  TGI: 35.3 µM
[4]
  GI50: 2.55 µM
  TGI: 11.9 µM
[5]
  GI50: 2.46 µM
  TGI: > 100 µM
[6]
  GI50: 3.51 µM
  TGI: 38 µM
[7]
  GI50: 1.49 µM
  TGI: 5.02 µM
[8]
  GI50: 2.96 µM
  TGI: 17.4 µM
[9]
  GI50: 3.68 µM
  TGI: > 100 µM
[10]
  GI50: 2.33 µM
  TGI: 7.51 µM

## CCN(Cc1ccccc1C)c1ccc(CO)c(Cl)c1
[1]
  GI50: 0.0283 µM
  TGI: 0.114 µM
[2]
  GI50: 16.5 µM
  TGI: 35.4 µM
[3]
  GI50: 11.8 µM
  TGI: 26.6 µM
[4]
  GI50: 17.6 µM
  TGI: 33 µM
[5]
  GI50: 1.26 µM
  TGI: 11.8 µM
[6]
  GI50: 15.8 µM
  TGI: 48.9 µM
[7]
  GI50: 4.04 µM
  TGI: 23.5 µM
[8]
  GI50: 15 µM
  TGI: 29.5 µM
[9]
  GI50: 13.2 µM
  TGI: 27.8 µM
[10]
  GI50: 0.278 µM
  TGI: 1.67 µM

## Cn1cc(C2=C(c3cccc(Br)c3)C(=O)NC2=O)c2ccccc21
[1]
  GI50: 4.51 µM
  TGI: 17.9 µM
[2]
  GI50: > 25 µM
  TGI: > 25 µM
[3]
  GI50: 8.43 µM
  TGI: > 25 µM
[4]
  GI50: 12 µM
  TGI: > 25 µM
[5]
  GI50: 12.6 µM
  TGI: > 25 µM
[6]
  GI50: 12.6 µM
  TGI: > 25 µM
[7]
  GI50: 20.1 µM
  TGI: > 25 µM
[8]
  GI50: 12.5 µM
  TGI: > 25 µM
[9]
  GI50: > 22.9 µM
  TGI: > 25 µM
[10]
  GI50: > 19.8 µM
  TGI: > 25 µM

## Cc1cc(C)c(/C=C2\C(=O)Nc3ccc(NC(=O)CCCCCCC(=O)NO)cc32)[nH]1
[1]
  GI50: 1.4 µM
  TGI: 18.2 µM
[2]
  GI50: 1.49 µM
  TGI: > 100 µM
[3]
  GI50: 7.2 µM
  TGI: > 100 µM
[4]
  GI50: 0.493 µM
  TGI: 12.9 µM
[5]
  GI50: 8.34 µM
  TGI: > 100 µM
[6]
  GI50: 0.638 µM
  TGI: > 100 µM
[7]
  GI50: > 100 µM
  TGI: > 100 µM
[8]
  GI50: 0.521 µM
  TGI: > 100 µM
[9]
  GI50: 0.525 µM
  TGI: > 100 µM
[10]
  GI50: 0.418 µM
  TGI: > 100 µM

## O=C1NC(=O)C(c2cccc([N+](=O)[O-])c2)=C1Nc1cc(Cl)c(O)c(Cl)c1
[1]
  GI50: > 11.5 µM
  TGI: > 25 µM
[2]
  GI50: > 25 µM
  TGI: > 25 µM
[3]
  GI50: > 25 µM
  TGI: > 25 µM
[4]
  GI50: 24.3 µM
  TGI: > 25 µM
[5]
  GI50: > 25 µM
  TGI: > 25 µM
[6]
  GI50: > 25 µM
  TGI: > 25 µM
[7]
  GI50: > 25 µM
  TGI: > 25 µM
[8]
  GI50: > 25 µM
  TGI: > 25 µM
[9]
  GI50: > 25 µM
  TGI: > 25 µM
